Laboratory results taken from patent US20030069295A1, “Use of histamine H3 receptor inverse agonists for the control of appetite and treatment of obesity” (Gliatech, Inc., priority 2001, published 2003).
Read-outs that look alike come from different tables or passages of the source. Marks after values point to notes of the source that are not given here. Blank lines part the entries; values can stand above or below the compound they belong to.

Key:
[1] = biological target: T1, Histamine H3 receptor (Rattus norvegicus, UniProt Q9QYN8); experiment: Histamine H3 receptor binding analysis, [3H]-Nα-methylhistamine competition in rat cerebral cortical membranes, with and without GTPγS; settings: for Ki Ratio (−/+): Ki without GTPγS / Ki with GTPγS; for remaining activity at 10 µM: read-out: percent of [3H]-Nα-methylhistamine bound (mean), 10000 nM of compound; for binding to GTPγS-treated cortical membrane preparation compared with non-treated preparation: result in words; for remaining activity at 30 pM: 0.03 nM of compound; for remaining activity at 0.0001 µM: 0.1 nM of compound; for remaining activity at 0.3 µM: 300 nM of compound
T1 construct: The cerebral cortical tissues were harvested and frozen on dry ice; from tissue; host or cells: cerebral cortex membranes of male Sprague-Dawley rats

[2] = biological target: T2, H3 receptor (Rattus norvegicus, UniProt Q9QYN8); experiment: Ex vivo binding: H3 receptor occupancy in the brain following intraperitoneal administration
T2 construct: ½-maximal H3 receptor occupancy in the brain following intraperitoneal administration; from tissue; host or cells: brain of dosed animals
Text: (§1) The percent reduction in food intake by rats two hours after intraperitoneal administration of each compound is shown in Table 5. […] In Table 5, * indicates a significant decrease in food intake compared to the vehicle-treated rats (t-test, p<0.05). The ex vivo binding values in Table 5 represent the drug dose required to obtain ½-maximal H3 receptor occupancy in the brain following intraperitoneal administration. The dose values shown in Table 5 represent the dosage of drug utilized during the food intake studies. In all cases, the tested dose exceeded the amount needed to obtain ½-maximal H3 receptor occupancy in the brain.

[3] = tested on: Sprague-Dawley rats; experiment: Food intake study in Sprague-Dawley rats; assay type: in vivo, rat; settings: for effect on food consumption by rats: two hours after intraperitoneal administration; for cumulative food intake, mean (g) ± sem: 10 mg/kg i.p., rats
Procedure: The compounds summarized in Table 3 were examined for their ability to suppress food consumption by adult Sprague-Dawley rats. Male Sprague Dawley rats were purchased from Harlan Laboratories of Indianapolis, Ind. Rats were housed one per cage and maintained on a 12 hour light/dark schedule (lights-out at 12:30 p.m.) with ad libitum access to powdered Teklad Mouse/Rat Diet 7012 (available from Harlan Laboratories of Indianapolis, Ind.) and water. Rats were acclimated to laboratory conditions and food for 1 to 2 weeks prior to initiating food intake studies. On the day of experiments, test compounds were solubilized or suspended in vehicle/carrier and administered to rats (i.p. or p.o.) 30 to 60 minutes prior to the onset of the dark cycle. Food intake was determined at 1, 2, 4, and 24 hours following the onset of the dark cycle. Alternatively, rats were fasted (water provided) for 24 hours prior to evaluating the effects of compounds on food intake. For these studies, compounds or vehicle/carrier were administered and rats were placed in standard small animal metabolism chambers with ad ibitum access to powdered Teklad Mouse/Rat Diet 7012 and water. Food intake was determined at 2 and 4 hours following the onset of feeding.
Data is cumulative food intake in grams, mean±sem. In the table, * indicates a significant decrease in food intake compared to the vehicle-treated rats (t-test, p<0.05).
as §1

[4] = GTPγS-treated receptor preparation (G-protein uncoupled), read-out: Ki (+) GTPγS
[5] = untreated receptor preparation (mixture of coupled and uncoupled H3 receptors), read-out: Ki (−) GTPγS
[6] = Tris-GTPγS, read-out: percent of [3H]-Nα-methylhistamine bound (mean)
[7] = Tris, read-out: percent of [3H]-Nα-methylhistamine bound (mean)

T2 sequence (Q9QYN8 whole entry): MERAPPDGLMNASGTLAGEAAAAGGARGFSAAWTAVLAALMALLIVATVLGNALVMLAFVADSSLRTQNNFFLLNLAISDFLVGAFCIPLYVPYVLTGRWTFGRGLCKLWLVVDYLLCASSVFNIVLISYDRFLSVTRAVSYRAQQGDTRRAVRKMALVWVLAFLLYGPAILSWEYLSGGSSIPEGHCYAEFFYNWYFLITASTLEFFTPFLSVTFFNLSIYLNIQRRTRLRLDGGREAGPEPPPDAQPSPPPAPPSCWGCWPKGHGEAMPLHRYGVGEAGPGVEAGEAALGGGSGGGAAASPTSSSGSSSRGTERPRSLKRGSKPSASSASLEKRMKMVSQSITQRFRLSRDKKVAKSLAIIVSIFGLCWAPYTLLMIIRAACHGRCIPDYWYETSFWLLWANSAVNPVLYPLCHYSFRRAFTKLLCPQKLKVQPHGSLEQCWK
T1 sequence (Q9QYN8 whole entry): as above

Compound: O=C(N[C@@H]1C[C@H]1c1c[nH]cn1)OCCC1CCCCC1 [Compound 1, 4-((1R,2R)-trans-2-(O-(2-cyclohexylethyl)carboxamido)cyclopropyl)imidazole]
Ki [1, 4]: 7.2 nM
Ki Ratio (−/+) [1]: 4.1
remaining activity at 0.0003 µM ([1]; read-out: percent of [3H]-Nα-methylhistamine bound (mean), 0.3 nM of compound, Tris): 108%
remaining activity at 0.0003 µM ([1]; read-out: percent of [3H]-Nα-methylhistamine bound (mean), 0.3 nM of compound, Tris-GTPγS): 103%
remaining activity at 0.001 µM ([1]; read-out: percent of [3H]-Nα-methylhistamine bound (mean), 1 nM of compound, Tris): 95.7%
remaining activity at 0.001 µM ([1]; read-out: percent of [3H]-Nα-methylhistamine bound (mean), 1 nM of compound, Tris-GTPγS): 98.3%
remaining activity at 0.003 µM ([1]; read-out: percent of [3H]-Nα-methylhistamine bound (mean), 3 nM of compound, Tris): 102%
remaining activity at 0.003 µM ([1]; read-out: percent of [3H]-Nα-methylhistamine bound (mean), 3 nM of compound, Tris-GTPγS): 93.3%
remaining activity at 0.01 µM ([1]; read-out: percent of [3H]-Nα-methylhistamine bound (mean), 10 nM of compound, Tris): 102%
remaining activity at 0.01 µM ([1]; read-out: percent of [3H]-Nα-methylhistamine bound (mean), 10 nM of compound, Tris-GTPγS): 76.4%
remaining activity at 0.03 µM ([1]; read-out: percent of [3H]-Nα-methylhistamine bound (mean), 30 nM of compound, Tris): 88.4%
remaining activity at 0.03 µM ([1]; read-out: percent of [3H]-Nα-methylhistamine bound (mean), 30 nM of compound, Tris-GTPγS): 42.6%
remaining activity at 0.1 µM ([1]; read-out: percent of [3H]-Nα-methylhistamine bound (mean), 100 nM of compound, Tris): 67.9%
remaining activity at 0.1 µM ([1]; read-out: percent of [3H]-Nα-methylhistamine bound (mean), 100 nM of compound, Tris-GTPγS): 23.8%
remaining activity at 1 µM ([1]; read-out: percent of [3H]-Nα-methylhistamine bound (mean), 1000 nM of compound, Tris): 12.6%
remaining activity at 1 µM ([1]; read-out: percent of [3H]-Nα-methylhistamine bound (mean), 1000 nM of compound, Tris-GTPγS): 4%
remaining activity at 10 µM ([1]; Tris): -1.6%
remaining activity at 10 µM ([1]; Tris-GTPγS): 1.3%
binding to GTPγS-treated cortical membrane preparation compared with non-treated preparation [1]: higher apparent affinity
Ki [1, 5]: 29.3 nM
Ex Vivo Binding (drug dose required to obtain ½-maximal H3 receptor occupancy in the brain) [2]: 3.1 ± 1.3 mg/kg

Compound: C(=C/CCC1CCCCC1)/CCc1c[nH]cn1 [Compound 2, (3Z)-4-(6-cyclohexylhex-3-en-1-yl)imidazole]
remaining activity at 30 pM [1, 6]: 98.3%
remaining activity at 30 pM [1, 7]: 98.5%
remaining activity at 0.0001 µM [1, 6]: 107%
remaining activity at 0.0001 µM [1, 7]: 96.7%
remaining activity at 0.0003 µM ([1]; 0.3 nM of compound, Tris-GTPγS, read-out: percent of [3H]-Nα-methylhistamine bound (mean)): 103%
remaining activity at 0.0003 µM ([1]; 0.3 nM of compound, Tris, read-out: percent of [3H]-Nα-methylhistamine bound (mean)): 96.7%
remaining activity at 0.001 µM ([1]; 1 nM of compound, Tris-GTPγS, read-out: percent of [3H]-Nα-methylhistamine bound (mean)): 91.1%
remaining activity at 0.001 µM ([1]; 1 nM of compound, Tris, read-out: percent of [3H]-Nα-methylhistamine bound (mean)): 99.2%
remaining activity at 0.003 µM ([1]; 3 nM of compound, Tris-GTPγS, read-out: percent of [3H]-Nα-methylhistamine bound (mean)): 77.4%
remaining activity at 0.003 µM ([1]; 3 nM of compound, Tris, read-out: percent of [3H]-Nα-methylhistamine bound (mean)): 88.7%
remaining activity at 0.01 µM ([1]; 10 nM of compound, Tris-GTPγS, read-out: percent of [3H]-Nα-methylhistamine bound (mean)): 54.8%
remaining activity at 0.01 µM ([1]; 10 nM of compound, Tris, read-out: percent of [3H]-Nα-methylhistamine bound (mean)): 60.1%
remaining activity at 0.03 µM ([1]; 30 nM of compound, Tris-GTPγS, read-out: percent of [3H]-Nα-methylhistamine bound (mean)): 26.2%
remaining activity at 0.03 µM ([1]; 30 nM of compound, Tris, read-out: percent of [3H]-Nα-methylhistamine bound (mean)): 32.6%
remaining activity at 0.1 µM ([1]; 100 nM of compound, Tris-GTPγS, read-out: percent of [3H]-Nα-methylhistamine bound (mean)): 10.7%
remaining activity at 0.1 µM ([1]; 100 nM of compound, Tris, read-out: percent of [3H]-Nα-methylhistamine bound (mean)): 13.5%
remaining activity at 0.3 µM [1, 6]: 4.4%
remaining activity at 0.3 µM [1, 7]: 4.5%
remaining activity at 1 µM ([1]; 1000 nM of compound, Tris-GTPγS, read-out: percent of [3H]-Nα-methylhistamine bound (mean)): 3.4%
remaining activity at 1 µM ([1]; 1000 nM of compound, Tris, read-out: percent of [3H]-Nα-methylhistamine bound (mean)): 0.4%
Ki [1, 4]: 3.6 nM
Ki Ratio (−/+) [1]: 1.3
binding to GTPγS-treated cortical membrane preparation compared with non-treated preparation [1]: relatively little difference in binding
Ki [1, 5]: 4.6 nM
effect on food consumption by rats ([3]; result in words): no measurable effect
Ex Vivo Binding (drug dose required to obtain ½-maximal H3 receptor occupancy in the brain) [2]: 0.92 ± 0.01 mg/kg

Compound: O=C(N[C@@H]1C[C@H]1c1c[nH]cn1)OCC1CCCCC1 [Compound 3, 4-((1R,2R)-trans-2-(O-(2-cyclohexylmethyl)carboxamido)cyclopropyl)imidazole]
Ki ([1]; Ki (+) GTPγS, GTPγS-treated receptor preparation (G-protein uncoupled)): 4.2 nM
Ki ([1]; Ki (−) GTPγS, untreated receptor preparation (mixture of coupled and uncoupled H3 receptors)): 10.1 nM
Ki Ratio (−/+) [1]: 2.4
cumulative food intake, mean (g) ± sem ([3]; 1 hr following onset of dark cycle): 1.8 ± 0.3* g
cumulative food intake, mean (g) ± sem ([3]; 2 hr following onset of dark cycle): 4.4 ± 0.2* g
cumulative food intake, mean (g) ± sem ([3]; 4 hr following onset of dark cycle): 7.1 ± 0.5* g
cumulative food intake, mean (g) ± sem ([3]; 24 hr following onset of dark cycle): 17.4 ± 1.2* g
effect of a single administration on food consumption ([3]; single administration, up to 24 hours, result in words): significant reduction of food consumption
Ex Vivo Binding (drug dose required to obtain ½-maximal H3 receptor occupancy in the brain) [2]: 2.6 ± 1.3 mg/kg

Compound: N[C@H](/C=C\CCc1c[nH]cn1)CC1CCCCC1 [Compound 4, 4-(((5S)(3Z)-5-amino-6-cyclohexyl)hex-3-en-1-yl)imidazole]
Ki [1, 4]: 1.9 nM
Ki Ratio (−/+) [1]: 6.0
Ki [1, 5]: 11.3 nM
Ex Vivo Binding (drug dose required to obtain ½-maximal H3 receptor occupancy in the brain) [2]: ˜15 mg/kg

Compound: Fc1ccc(C(OCCCc2c[nH]cn2)c2ccc(F)cc2)cc1 [Compound 8, 3-(1H-imidazol-4-yl)propyl-di(p-fluorophenyl)-methyl ether]
Ki [1, 4]: 7.8 nM
Ki Ratio (−/+) [1]: 2.3
Ki [1, 5]: 18.2 nM
Ex Vivo Binding (drug dose required to obtain ½-maximal H3 receptor occupancy in the brain) [2]: 5.6 ± 0.12 mg/kg

Compound: CC(C)(C)CCOC(=O)N[C@@H]1C[C@H]1c1c[nH]cn1 [Compound 9, 4-((1R,2R)-trans-2-(O-(3,3-dimethyl-but-1-yl)carboxamido)cyclopropyl)imidazole]
Ki [1, 4]: 4.5 nM
Ki Ratio (−/+) [1]: 1.6
Ki [1, 5]: 7.3 nM
effect on food consumption by rats ([3]; result in words): no measurable effect
Ex Vivo Binding (drug dose required to obtain ½-maximal H3 receptor occupancy in the brain) [2]: 3.7 ± 0.4 mg/kg

Now from value to compound, other results behind:

Ex Vivo Binding (drug dose required to obtain ½-maximal H3 receptor occupancy in the brain) [2]: 8.0 ± 1.3 mg/kg
Compound: O=C(CCCCC1CCCCC1)N1CCC(c2c[nH]cn2)CC1 [Compound 5, 4-(N-(5-cyclohexylpentan-1-one-1-yl)piperidin-4-yl)imidazole]

Ki [1, 4]: 0.24 nM
Ki Ratio (−/+) [1]: 1.7
Ki [1, 5]: 0.41 nM
Ex Vivo Binding (drug dose required to obtain ½-maximal H3 receptor occupancy in the brain) [2]: 0.08 ± 0.03 mg/kg
Compound: CC(C)(C)CCC#C[C@@H]1C[C@H]1c1c[nH]cn1 [Compound 6, (1R,2R)-trans-4-(2-(5,5-dimethylhex-1-ynyl)cyclopropyl) imidazole]
effect on food consumption by rats ([3]; result in words): no measurable effect

Ki [1, 4]: 2.3 nM
Ki Ratio (−/+) [1]: 1.5
Ki [1, 5]: 3.4 nM
Ex Vivo Binding (drug dose required to obtain ½-maximal H3 receptor occupancy in the brain) [2]: 2.9 ± 1.3 mg/kg
Compound: O=C(N[C@@H]1C[C@H]1c1c[nH]cn1)OCc1c(Cl)cccc1Cl [Compound 7, 4-((1R,2R)-trans-2-(O-(2,6-dichlorophenylmethyl)carboxamido)cyclopropyl)imidazole]
effect on food consumption by rats ([3]; result in words): no measurable effect
